Measurements reported in US20110082130A1 (LIGAND PHARMACEUTICALS, INC., priority 2006, published 2011).

What follows are compounds tested against T1, chimeric human H3 receptor (Homo sapiens, UniProt Q9Y5N1) (assay: Chimeric human H3 receptor GTP binding assay (agonist-stimulated GTP-gamma35S binding, Example 7)). Settings: Table I; P2 membranes of Sf9 cells, 1 μM histamine as agonist, Ki from IC50 by Cheng-Prusoff.
T1 construct: made in house; host or cells: Sf9 insect cells (baculovirus); P2 membrane preparation
T1 sequence (Q9Y5N1 with tags, fused parts or gaps): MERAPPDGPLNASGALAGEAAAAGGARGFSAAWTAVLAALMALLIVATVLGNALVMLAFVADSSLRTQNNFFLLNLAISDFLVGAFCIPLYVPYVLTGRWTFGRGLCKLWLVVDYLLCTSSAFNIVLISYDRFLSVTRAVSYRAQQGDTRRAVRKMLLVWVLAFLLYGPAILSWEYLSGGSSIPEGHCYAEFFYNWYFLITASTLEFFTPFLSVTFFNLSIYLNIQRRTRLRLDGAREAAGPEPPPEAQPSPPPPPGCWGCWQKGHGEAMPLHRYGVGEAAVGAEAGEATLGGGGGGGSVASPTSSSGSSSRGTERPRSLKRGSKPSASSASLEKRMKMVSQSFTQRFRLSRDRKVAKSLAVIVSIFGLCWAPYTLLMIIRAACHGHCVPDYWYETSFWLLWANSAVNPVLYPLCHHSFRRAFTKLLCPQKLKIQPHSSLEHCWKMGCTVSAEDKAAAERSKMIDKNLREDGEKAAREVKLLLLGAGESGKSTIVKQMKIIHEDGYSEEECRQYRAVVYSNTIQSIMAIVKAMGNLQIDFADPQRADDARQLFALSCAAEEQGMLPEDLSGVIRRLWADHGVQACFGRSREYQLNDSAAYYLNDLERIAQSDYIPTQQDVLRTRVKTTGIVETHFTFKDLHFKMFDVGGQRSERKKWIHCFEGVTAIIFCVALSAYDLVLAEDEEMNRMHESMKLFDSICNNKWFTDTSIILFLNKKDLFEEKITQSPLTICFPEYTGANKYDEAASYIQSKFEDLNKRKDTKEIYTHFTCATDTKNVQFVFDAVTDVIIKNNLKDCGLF
Type: biochemical
Method in brief: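 Sf9 membranes co-expressing chimeric human H3 receptor and heterotrimeric G-protein, 35 μg/tube, in pH 7.4 Tris buffer with 10 μM GDP. Test compounds (10^−10–10^−6 M) competed against 1 μM histamine, […] GTP-gamma35S, 60 min at room temperature. Filter-bound radioactivity counted; IC50 converted to Ki by Cheng-Prusoff. Agonism/inverse agonism tested without histamine (EC50).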

Ki, < 1 µM:
O=C(CN1CCc2cc(-c3cncnc3)ccc2C1)N1CCN(C2CCC2)CC1 [Compound 70, 2-[2-(4-cyclobutylpiperazin-1-yl)-2-oxoethyl]-6-pyrimidin-5-yl-1,2,3,4-tetrahydrasoquinoline]
COc1ccc2c(c1)CCN(CC(=O)N1CCN(C3CCC3)CC1)C2c1ccccc1Cl (centres unmarked) [Compound 62, 1-(2-chlorophenyl)-2-[2-(4-cyclobutylpiperazin-1-yl)-2-oxoethyl]-6-methoxy-1,2,3,4-tetrahydroisoquinoline]

Same assay, conditions: Table II "Ki", symbol *; assay of Example 7

Ki, < 1 µM:
O=C(CN1CCc2nc(NC3CCCCC3)ccc2C1)N1CCN(C2CCC2)CC1 [Compound 658, 6-[2-(4-cyclobutylpiperazin-1-yl)-2-oxoethyl]-N-cyclohexyl-5,6,7,8-tetrahydro-1,6-naphthyridin-2-amine]
C[C@H]1CN(C(=O)CN2CCc3cc(-c4cncnc4)ccc3C2)CCN1C1C[C@H]2CC[C@@H]1C2 (stereo partly drawn) [Compound 624, 2-(2-{(3S)-4-[(1R,4S)-bicyclo[2.2.1]hept-2-yl]-3-methylpiperazin-1-yl}-2-oxoethyl)-6-pyrimidin-5-yl-1,2,3,4-tetrahydroisoquinoline]
CC(C)c1ccc(-c2ccc3c(c2)CCN(CC(=O)N2CCN(C4CCC4)CC2)C3)nc1 [Compound 647, 2-[2-(4-cyclobutylpiperazin-1-yl)-2-oxoethyl]-6-(5-isopropylpyridin-2-yl)-1,2,3,4-tetrahydroisoquinoline]
O=C1CCCN1CCCNc1ccc2c(n1)CCN(CC(=O)N1CCN(C3CCC3)CC1)C2 [Compound 653, 1-[3-({6-[2-(4-cyclobutylpiperazin-1-yl)-2-oxoethyl]-5,6,7,8-tetrahydro-1,6-naphthyridin-2-yl}amino)propyl] pyrrolidin-2-one]
N#CCC1CCN(c2ccc3c(n2)CCN(CC(=O)N2CCN(C4CCC4)CC2)C3)CC1 [Compound 675, (1-{6-[2-(4-cyclobutylpiperazin-1-yl)-2-oxoethyl]-5,6,7,8-tetrahydro-1,6-naphthyridin-2-yl}piperidin-4-yl)acetonitrile]

Same assay, conditions: Table II; "*" = Ki in assay of Example 7 less than 1 micromolar

Ki, < 1 µM:
O=C(CN1CCc2cc(-c3cncs3)ccc2C1)N1CCN(C2CCC2)CC1 [Compound 132, 2-[2-(4-cyclobutylpiperazin-1-yl)-2-oxoethyl]-6-(1,3-thiazol-5-yl)-1,2,3,4-tetrahydroisoquinoline]
CC(C)[C@@H]1CN(C(=O)CN2CCc3cc(-c4cncnc4)ccc3C2)CCN1C1CCC1 [Compound 189, 2-{2-[(3R)-4-cyclobutyl-3-isopropylpiperazin-1-yl]-2-oxoethyl}-6-pyrimidin-5-yl-1,2,3,4-tetrahydroisoquinoline]
CC1CN(C(=O)CN2CCc3nc(-c4cscn4)sc3C2)CCN1C1CCC1 (centres unmarked) [Compound 113, 5-[2-(4-cyclobutyl-3-methylpiperazin-1-yl)-2-oxoethyl]-2-(1,3-thiazol-4-yl)-4,5,6,7-tetrahydro[1,3]thiazolo [5,4-c]pyridine]
CC(C)N1CCN(C(=O)CN2CCc3cc(-c4cccnn4)ccc3C2)CC1 [Compound 164, 2-[2-(4-isopropylpiperazin-1-yl)-2-oxoethyl]-6-pyridazin-3-yl-1,2,3,4-tetrahydroisoquinoline]
O=C(CN1CCc2nc(N3CCOCC3)cnc2C1)N1CCN(C2CCC2)CC1 [Compound 240, 6-[2-(4-cyclobutylpiperazin-1-yl)-2-oxoethyl]-2-morpholin-4-yl-5,6,7,8-tetrahydropyrido[3,4-b]pyrazine]
O=C(CN1CCc2nc(Cl)ccc2C1)N1CCN(C2CCC2)CC1 [Compound 168, 2-chloro-6-[2-(4-cyclobutylpiperazin-1-yl)-2-oxoethyl]-5,6,7,8-tetrahydro-1,6-naphthyridine]
O=C(CN1CCc2c(cnn2-c2ccc(F)cc2)C1)N1CCN(C2CCC2)CC1 [Compound 234, 5-[2-(4-cyclobutylpiperazin-1-yl)-2-oxoethyl]-1-(4-fluorophenyl)-4,5,6,7-tetrahydro-1H-pyrazolo[4,3-c]pyridine]
O=C(CN1CCc2sc(Br)nc2C1)N1CCN(C2CCC2)CC1 [Compound 108, 2-bromo-5-[2-(4-cyclobutylpiperazin-1-yl)-2-oxoethyl]-4,5,6,7-tetrahydro[1,3] thiazolo [4,5-c]pyridine]
O=C(CN1CCc2nc(-c3ccccn3)ncc2C1)N1CCN(C2CCC2)CC1 [Compound 144, 6-[2-(4-cyclobutylpiperazin-1-yl)-2-oxoethyl]-2-pyridin-2-yl-5,6,7,8-tetrahydropyrido[4,3-d]pyrimidine]
O=C(CN1CCc2nn(-c3ncccn3)cc2C1)N1CCN(C2CCC2)CC1 [Compound 248, 5-[2-(4-cyclobutylpiperazin-1-yl)-2-oxoethyl]-2-pyrimidin-2-yl-4,5,6,7-tetrahydro-2H-pyrazolo[4,3-c]pyridine]
C[C@@H](O)c1ccc2c(c1)CCN(CC(=O)N1CCN(C3CCC3)CC1)C2 (stereo in doubt) [Compound 253, 1-{2-[2-(4-cyclobutylpiperazin-1-yl)-2-oxoethyl]-1,2,3,4-tetrahydroisoquinolin-6-yl}ethanol]
COC(=O)c1ccc(-c2nc3c(s2)CN(CC(=O)N2CCN(C4CCC4)CC2)CC3)cc1 [Compound 100, methyl 4-{5-[2-(4-cyclobutylpiperazin-1-yl)-2-oxoethyl]-4,5,6,7-tetrahydro[1,3]thiazolo [5,4-c]pyridin-2-yl}benzoate]
O=C(CN1CCc2c(cnn2-c2ccc(Cl)nn2)C1)N1CCN(C2CCC2)CC1 [Compound 214, 1-(6-chloropyridazin-3-yl)-5-[2-(4-cyclobutylpiperazin-1-yl)-2-oxoethyl]-4,5,6,7-tetrahydro-1H-pyrazolo[4,3-c]pyridine]
Cc1cnn(-c2ccc3c(c2)CCN(CC(=O)N2CCN(C4CCC4)CC2)C3)c1 [Compound 217, 2-[2-(4-cyclobutylpiperazin-1-yl)-2-oxoethyl]-6-(4-methyl-1H-pyrazol-1-yl)-1,2,3,4-tetrahydroisoquinoline]
CCC1CCC[C@H]2CN(C(=O)CN3CCc4cc(-c5cncnc5)ccc4C3)CCN12 (stereo in doubt) [Compound 160, 6-ethyl-2-[(6-pyrimidin-5-yl-3,4-dihydroisoquinolin-2(1H)-yl)acetyl]octahydro-2H-pyrido[1,2-a]pyrazine]

Same assay, conditions: Table II; assay of Example 7

Ki, < 1 µM:
N#Cc1ccc(-c2ncc3c(n2)CCN(CC(=O)N2CCN(C4CCC4)CC2)C3)cc1 [Compound 683, 4-{6-[2-(4-cyclobutylpiperazin-1-yl)-2-oxoethyl]-5,6,7,8-tetrahydropyrido[4,3-d]pyrimidin-2-yl]benzonitrile]
O=C(CN1CCc2nn(-c3ccc4nncn4n3)cc2C1)N1CCN(C2CCC2)CC1 [Compound 688, 6-{5-[2-(4-cyclobutylpiperazin-1-yl)-2-oxoethyl]-4,5,6,7-tetrahydro-2H-pyrazolo[4,3-c]pyridin-2-yl}[1,2,4]triazolo[4,3-b]pyridazine]

Same assay, conditions: assay of Example 7; "*" in Ki of Table II

Ki, < 1 µM:
O=C(CN1CCc2nc(-c3ccccc3F)sc2C1)N1CCN(C2CCC2)CC1 [Compound 299, 5-[2-(4-cyclobutylpiperazin-1-yl)-2-oxoethyl]-2-(2-fluorophenyl)-4,5,6,7-tetrahydro[1,3]thiazolo [5,4-c]pyridine]
O=C(CN1CCc2nc(-c3ccc4c(c3)OCCO4)sc2C1)N1CCN(C2CCC2)CC1 [Compound 332]
CS(=O)(=O)c1ccc(-c2ccc3c(c2)CCN(CC(=O)N2CCN(C4CCCC4)CC2)C3)cc1 [Compound 390, 2-[2-(4-cyclopentylpiperazin-1-yl)-2-oxoethyl]-6-[4-(methylsulfonyl)phenyl]-1,2,3,4-tetrahydroisoquinoline]
Cc1cnc(-n2cc3c(n2)CCN(CC(=O)N2CCN(C4CCC4)CC2)C3)nc1 [Compound 289, 5-[2-(4-cyclobutylpiperazin-1-yl)-2-oxoethyl]-2-(5-methylpyrimidin-2-yl)-4,5,6,7-tetrahydro-2H-pyrazolo[4,3-c]pyridine]
O=C(CN1CCc2cc(-c3cncnc3)ccc2C1)N1CCN(C2CCCC2)CC1 [Compound 392, 2-[2-(4-cyclopentylpiperazin-1-yl)-2-oxoethyl]-6-pyrimidin-5-yl-1,2,3,4-tetrahydroisoquinoline]
Cc1ccc(-c2nc3c(s2)CN(CC(=O)N2CCN(C4CCC4)CC2)CC3)c(F)c1 [Compound 301, 5-[2-(4-cyclobutylpiperazin-1-yl)-2-oxoethyl]-2-(2-fluoro-4-methylphenyl)-4,5,6,7-tetrahydro[1,3]thiazolo [5,4-c]pyridine]
Cc1cccc(C)c1-c1nc2c(s1)CN(CC(=O)N1CCN(C3CCC3)CC1)CC2 [Compound 363, 5-[2-(4-cyclobutylpiperazin-1-yl)-2-oxoethyl]-2-(2,6-dimethylphenyl)-4,5,6,7-tetrahydro[1,3]thiazolo [5,4-c]pyridine]
COCc1ncc2c(n1)CCN(CC(=O)N1CCN(C3CCC3)CC1)C2 [Compound 286, 6-[2-(4-cyclobutylpiperazin-1-yl)-2-oxoethyl]-2-(methoxymethyl)-5,6,7,8-tetrahydropyrido[4,3-d]pyrimidine]
